Data on 13 molecules can be found in article PMC6690791 (Bioorganic & medicinal chemistry letters, 2019).

Common to all, as to format: biochemical
For assay [1], the target named is HCV genotype 1b NS3/4A protease (Hepatitis C virus genotype 1b, UniProt P26663). The assay is described as follows: fluorescence-based enzymatic assay, genotype 1b NS3/4A.
Another assay concerns the target R155K NS3/4A genotype 1b (Hepatitis C virus genotype 1b, UniProt P26663, R1181K). Put plainly: enzymatic inhibition assay, drug-resistant mutant R155K of genotype 1b.
The next assay addresses A156S NS3/4A genotype 1b (Hepatitis C virus genotype 1b, UniProt P26663, A1182S). The assay is described as follows: enzymatic inhibition assay, drug-resistant mutant A156S of genotype 1b.
The next assay deals with V36M NS3/4A genotype 1b (Hepatitis C virus genotype 1b, UniProt P26663, V1062M). The assay is described as follows: enzymatic inhibition assay, drug-resistant mutant V36M of genotype 1b.
In assay [2] the target is HCV genotype 3a NS3/4A protease (Hepatitis C virus genotype 3a, UniProt Q81258). Put plainly: enzymatic inhibition assay, genotype 3a NS3/4A.

Read-outs that look alike come from different tables or passages of the source. A value given as a limit tells only on which side of the number the result lay.

`Cc1ccc(S(=O)(=O)Nc2ccccc2C(=O)Nc2nc3c(C)cc(C)cc3s2)cc1` [F0325–0086] gave an IC50 in assay [1] of 2 to 5 µM.

In assay [1], `Cc1ccc(S(=O)(=O)Nc2ccccc2C(=O)Nc2nc3ccc4ccccc4c3s2)cc1` [F0325–0092] had an IC50 of 2 to 5 µM.

For the molecule `Cc1ccc(S(=O)(=O)Nc2ccccc2C(=O)Nc2nc3c(ccc4ccccc43)s2)cc1` [F0325–0093], the IC50 in assay [1] lay within 5 to 10 µM.

`Cc1ccc(S(=O)(=O)Nc2ccccc2C(=O)Nc2nc(-c3cc(Cl)ccc3Cl)cs2)cc1` [F0325–0125]: the “inhibitory activity (IC50)” value against R155K NS3/4A genotype 1b was “did not retain activity”. In addition, the IC50 in assay [1] is below 2 µM.

In the case of `Cc1ccc(S(=O)(=O)Nc2ccccc2C(=O)Nc2nc3ccc4sc(C)nc4c3s2)cc1` [F0725–0019], in assay [1], the IC50 was 2 to 5 µM.

Take `Cc1ccc(S(=O)(=O)Nc2ccccc2C(=O)Nc2nc3c(cc4c5c(cccc53)CC4)s2)cc1` [F0816–0111]: at R155K NS3/4A genotype 1b, the “inhibitory activity (IC50)” value is listed as “did not retain activity”. In assay [1], the IC50 lay in the range of 2 to 5 µM.

Take `Cc1ccc(S(=O)(=O)Nc2ccccc2C(=O)Nc2nc3c(Cl)ccc(Cl)c3s2)cc1` [F1813–0710]: the “inhibitory activity (IC50)” value on A156S NS3/4A genotype 1b, against V36M NS3/4A genotype 1b and at R155K NS3/4A genotype 1b was “maintains its activities” each time. Further, the concentration for half-maximal inhibition (IC50) in assay [1] is below 2 µM; in assay [2], 14 µM.

For `Cc1ccc(S(=O)(=O)Nc2ccccc2C(=O)Nc2nc3c(C)ccc(Cl)c3s2)cc1` [F1813–0711], the “inhibitory activity (IC50)” value on R155K NS3/4A genotype 1b was “did not retain activity”. The molecule further displayed an IC50 in assay [1] of 5 to 10 µM.

In assay [1], `Cc1ccc(S(=O)(=O)Nc2ccccc2C(=O)Nc2nc3c(Br)cccc3s2)cc1` [F1822–0567] returned an IC50 of 10 to 100 µM.

Turning to `Cc1c(Cl)cccc1NC(=O)Cc1csc(NS(=O)(=O)c2ccccc2)n1` [F2322–0877], the IC50 in assay [1] was in the range of 5 to 10 µM.

`Cc1cc(NC(=O)Cc2csc(NS(=O)(=O)c3ccccc3)n2)ccc1Br` [F2322–0885]: in assay [2] (genotype 3a NS3/4A), the IC50 entry is “did not have any effect”.

On to `CSc1cccc(NC(=O)Cc2csc(NS(=O)(=O)c3ccccc3)n2)c1` [F2322–0904], for which, in assay [1], the IC50 fell in the range of 5 to 10 µM.

For `CSc1cccc2sc(NC(=O)c3ccccc3NS(=O)(=O)c3ccc(C)cc3)nc12` [F2730–0247], the half-maximal inhibitory concentration (IC50) in assay [1] fell in the range of 10 to 100 µM.
